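Dose response: 5 concentrations. Exposure: 48 h. Format: 96-well plates. Endpoint: linear interpolation; highest concentration if not reached. GI50: concentration for 50% inhibition of growth.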 Calls of active or inactive are those of the source. Cut-off read from the data, not from the text of the source: active = GI50 up to about 1.1 µM and inactive = higher.
Experiments:
Assay in all cases: DTP human tumour cell line panel, 48 h
A549 = tested on: A549
NCI-H226 = tested on: NCI-H226
EKVX = tested on: EKVX
MDA-N = tested on: MDA-N
HCC 2998 = tested on: HCC 2998
LOX IMVI = tested on: LOX IMVI
SK-MEL-28 = tested on: SK-MEL-28
IGROV-1 = tested on: IGROV-1
HCT-116 = tested on: HCT-116
RXF 393 = tested on: RXF 393
SN12C = tested on: SN12C
Hs-578T = tested on: Hs-578T
BT-549 = tested on: BT-549
UO-31 = tested on: UO-31
SF-268 = tested on: SF-268
SK-MEL-5 = tested on: SK-MEL-5
SF-539 = tested on: SF-539
OVCAR-5 = tested on: OVCAR-5
HOP-62 = tested on: HOP-62
PC-3 = tested on: PC-3
UACC-62 = tested on: UACC-62
CCRF-CEM = tested on: CCRF-CEM
HOP-92 = tested on: HOP-92
A498 = tested on: A498
CAKI-1 = tested on: CAKI-1
SR = tested on: SR
SNB-19 = tested on: SNB-19
ACHN = tested on: ACHN
MCF7 = tested on: MCF7
786-0 = tested on: 786-0
SF-295 = tested on: SF-295
T47D = tested on: T47D
NCI-H23 = tested on: NCI-H23
SK-OV-3 = tested on: SK-OV-3
MDA-MB-435 = tested on: MDA-MB-435
MDA-MB-231 = tested on: MDA-MB-231
UACC-257 = tested on: UACC-257
DU-145 = tested on: DU-145
NCI-H522 = tested on: NCI-H522
COLO 205 = tested on: COLO 205
HT-29 = tested on: HT-29
TK-10 = tested on: TK-10
HL-60 = tested on: HL-60
OVCAR-3 = tested on: OVCAR-3
MOLT-4 = tested on: MOLT-4
HCT-15 = tested on: HCT-15
SK-MEL-2 = tested on: SK-MEL-2
SW-620 = tested on: SW-620
OVCAR-4 = tested on: OVCAR-4
M14 = tested on: M14
NCI/ADR-RES = tested on: NCI/ADR-RES
U-251 = tested on: U-251
OVCAR-8 = tested on: OVCAR-8
KM12 = tested on: KM12
Malme-3M = tested on: Malme-3M
K562 = tested on: K562
NCI-H460 = tested on: NCI-H460
SNB-75 = tested on: SNB-75
RPMI-8226 = tested on: RPMI-8226

## S=C(Nc1ccc2c(c1)oc1ccccc12)c1cccs1
A549
  GI50: 66.7 µM (inactive)
NCI-H226
  GI50: > 100 µM (inactive)
EKVX
  GI50: 38.5 µM (inactive)
MDA-N
  GI50: > 100 µM (inactive)
HCC 2998
  GI50: > 100 µM (inactive)
LOX IMVI
  GI50: 7.73 µM (inactive)
SK-MEL-28
  GI50: > 100 µM (inactive)
IGROV-1
  GI50: 37.1 µM (inactive)
HCT-116
  GI50: > 100 µM (inactive)
RXF 393
  GI50: 27.9 µM (inactive)
SN12C
  GI50: > 100 µM (inactive)
Hs-578T
  GI50: 29.8 µM (inactive)
BT-549
  GI50: 39.9 µM (inactive)
UO-31
  GI50: > 100 µM (inactive)
SF-268
  GI50: 38.1 µM (inactive)
SK-MEL-5
  GI50: > 100 µM (inactive)
SF-539
  GI50: 26.2 µM (inactive)
OVCAR-5
  GI50: > 100 µM (inactive)
HOP-62
  GI50: 25.4 µM (inactive)
PC-3
  GI50: > 100 µM (inactive)
UACC-62
  GI50: 82.8 µM (inactive)
CCRF-CEM
  GI50: > 100 µM (inactive)
HOP-92
  GI50: 53.5 µM (inactive)
A498
  GI50: > 100 µM (inactive)
CAKI-1
  GI50: 52.8 µM (inactive)
SR
  GI50: 4.25 µM (inactive)
SNB-19
  GI50: 38.1 µM (inactive)
ACHN
  GI50: > 100 µM (inactive)
MCF7
  GI50: 24.1 µM (inactive)
786-0
  GI50: 11.3 µM (inactive)
SF-295
  GI50: 16.6 µM (inactive)
T47D
  GI50: 3.37 µM (inactive)
NCI-H23
  GI50: > 100 µM (inactive)
SK-OV-3
  GI50: 37.9 µM (inactive)
MDA-MB-435
  GI50: > 100 µM (inactive)
MDA-MB-231
  GI50: 21.7 µM (inactive)
UACC-257
  GI50: > 100 µM (inactive)
DU-145
  GI50: 40.8 µM (inactive)
NCI-H522
  GI50: 20.8 µM (inactive)
COLO 205
  GI50: > 100 µM (inactive)
HT-29
  GI50: 3.66 µM (inactive)
TK-10
  GI50: > 100 µM (inactive)
HL-60
  GI50: > 100 µM (inactive)
OVCAR-3
  GI50: 23 µM (inactive)
MOLT-4
  GI50: > 100 µM (inactive)
HCT-15
  GI50: > 100 µM
SK-MEL-2
  GI50: > 100 µM (inactive)
SW-620
  GI50: > 100 µM (inactive)
OVCAR-4
  GI50: 30.6 µM (inactive)
M14
  GI50: > 100 µM (inactive)
NCI/ADR-RES
  GI50: > 100 µM (inactive)
U-251
  GI50: 30.5 µM (inactive)
OVCAR-8
  GI50: 18.7 µM (inactive)

## CC(Cc1cccc2c1Nc1ccccc1S2)N(C)CCO (configuration not stated)
A549
  GI50: > 100 µM (inactive)
NCI-H226
  GI50: > 100 µM (inactive)
EKVX
  GI50: > 100 µM (inactive)
MDA-N
  GI50: > 100 µM (inactive)
HCC 2998
  GI50: > 100 µM (inactive)
LOX IMVI
  GI50: > 100 µM (inactive)
SK-MEL-28
  GI50: > 100 µM (inactive)
IGROV-1
  GI50: > 100 µM (inactive)
HCT-116
  GI50: > 100 µM (inactive)
RXF 393
  GI50: > 100 µM (inactive)
KM12
  GI50: > 100 µM (inactive)
SN12C
  GI50: > 100 µM (inactive)
Hs-578T
  GI50: > 100 µM (inactive)
BT-549
  GI50: > 100 µM (inactive)
UO-31
  GI50: > 100 µM (inactive)
SF-268
  GI50: > 100 µM (inactive)
SK-MEL-5
  GI50: > 100 µM (inactive)
SF-539
  GI50: > 100 µM (inactive)
OVCAR-5
  GI50: > 100 µM (inactive)
HOP-62
  GI50: > 100 µM (inactive)
PC-3
  GI50: > 100 µM (inactive)
UACC-62
  GI50: > 100 µM (inactive)
CCRF-CEM
  GI50: > 100 µM (inactive)
HOP-92
  GI50: > 100 µM (inactive)
A498
  GI50: 26.4 µM (inactive)
CAKI-1
  GI50: > 100 µM (inactive)
SR
  GI50: > 100 µM (inactive)
SNB-19
  GI50: > 100 µM (inactive)
ACHN
  GI50: > 100 µM (inactive)
MCF7
  GI50: > 100 µM (inactive)
786-0
  GI50: > 100 µM (inactive)
SF-295
  GI50: > 100 µM (inactive)
T47D
  GI50: > 100 µM (inactive)
NCI-H23
  GI50: > 100 µM (inactive)
Malme-3M
  GI50: > 100 µM (inactive)
K562
  GI50: > 100 µM (inactive)
SK-OV-3
  GI50: > 100 µM (inactive)
MDA-MB-435
  GI50: > 100 µM (inactive)
MDA-MB-231
  GI50: > 100 µM (inactive)
UACC-257
  GI50: > 100 µM (inactive)
DU-145
  GI50: > 100 µM (inactive)
NCI-H522
  GI50: > 100 µM (inactive)
COLO 205
  GI50: > 100 µM (inactive)
HT-29
  GI50: > 100 µM (inactive)
TK-10
  GI50: > 100 µM (inactive)
HL-60
  GI50: > 100 µM (inactive)
OVCAR-3
  GI50: > 100 µM (inactive)
MOLT-4
  GI50: > 100 µM (inactive)
HCT-15
  GI50: > 100 µM
SW-620
  GI50: > 100 µM (inactive)
OVCAR-4
  GI50: > 100 µM (inactive)
NCI-H460
  GI50: > 100 µM (inactive)
M14
  GI50: > 100 µM (inactive)
NCI/ADR-RES
  GI50: > 100 µM (inactive)
U-251
  GI50: > 100 µM (inactive)
OVCAR-8
  GI50: > 100 µM (inactive)

## COc1ccc2[nH]c3c(c2c1)COc1ccccc1C3=O
A549
  GI50: > 100 µM (inactive)
NCI-H226
  GI50: > 100 µM (inactive)
EKVX
  GI50: > 100 µM (inactive)
MDA-N
  GI50: > 100 µM (inactive)
HCC 2998
  GI50: > 100 µM (inactive)
LOX IMVI
  GI50: > 100 µM (inactive)
SK-MEL-28
  GI50: > 100 µM (inactive)
IGROV-1
  GI50: > 100 µM (inactive)
HCT-116
  GI50: > 100 µM (inactive)
KM12
  GI50: > 100 µM (inactive)
SN12C
  GI50: > 100 µM (inactive)
Hs-578T
  GI50: 69 µM (inactive)
BT-549
  GI50: 37.1 µM (inactive)
UO-31
  GI50: > 100 µM (inactive)
SF-268
  GI50: > 100 µM (inactive)
SK-MEL-5
  GI50: > 100 µM (inactive)
SF-539
  GI50: 89.1 µM (inactive)
OVCAR-5
  GI50: > 100 µM (inactive)
HOP-62
  GI50: > 100 µM (inactive)
PC-3
  GI50: > 100 µM (inactive)
UACC-62
  GI50: > 100 µM (inactive)
CCRF-CEM
  GI50: > 100 µM (inactive)
HOP-92
  GI50: > 100 µM (inactive)
A498
  GI50: > 100 µM (inactive)
CAKI-1
  GI50: > 100 µM (inactive)
SR
  GI50: > 100 µM (inactive)
SNB-19
  GI50: > 100 µM (inactive)
ACHN
  GI50: > 100 µM (inactive)
MCF7
  GI50: > 100 µM (inactive)
786-0
  GI50: > 100 µM (inactive)
SF-295
  GI50: > 100 µM (inactive)
T47D
  GI50: 44.4 µM (inactive)
NCI-H23
  GI50: > 100 µM (inactive)
Malme-3M
  GI50: > 100 µM (inactive)
SNB-75
  GI50: 18.6 µM (inactive)
K562
  GI50: > 100 µM (inactive)
SK-OV-3
  GI50: > 100 µM (inactive)
MDA-MB-435
  GI50: 25.4 µM (inactive)
MDA-MB-231
  GI50: > 100 µM (inactive)
UACC-257
  GI50: > 100 µM (inactive)
DU-145
  GI50: > 100 µM (inactive)
NCI-H522
  GI50: > 100 µM (inactive)
COLO 205
  GI50: > 100 µM (inactive)
HT-29
  GI50: > 100 µM (inactive)
TK-10
  GI50: > 100 µM (inactive)
HL-60
  GI50: > 100 µM (inactive)
OVCAR-3
  GI50: > 100 µM (inactive)
MOLT-4
  GI50: > 100 µM (inactive)
HCT-15
  GI50: > 100 µM
RPMI-8226
  GI50: > 100 µM (inactive)
SK-MEL-2
  GI50: 34.8 µM (inactive)
SW-620
  GI50: > 100 µM (inactive)
OVCAR-4
  GI50: > 100 µM (inactive)
NCI-H460
  GI50: > 100 µM (inactive)
M14
  GI50: > 100 µM (inactive)
NCI/ADR-RES
  GI50: > 100 µM (inactive)
U-251
  GI50: > 100 µM (inactive)
OVCAR-8
  GI50: > 100 µM (inactive)
